Some test systems named below: HCT-15; HOP-92; HOP-62; SW-620; NCI-H23; OVCAR-4; OVCAR-3; Malme-3M; CCRF-CEM; TK-10; SK-MEL-5; U-251; HCT-116; KM-20L2; NCI-H522; SF-268; SK-OV-3; SR.
What all share (test): inhibition of tumour cell growth, NCI panel, 48 h

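Cultured in 96-well plates, cells were exposed to test compound for 48 hours across five concentrations. At the GI50, growth is halved.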 Calls of active or inactive are those of the source. Cut-off read from the data, not from the text of the source: active = GI50 up to about 1.1 µM and inactive = higher. Where only a bound is given, the exact number is not on record here.

For the compound `O=c1[nH]c(Br)nc2c(Br)c[nH]c12`, the GI50 was more than 100 µM in the assay with HCT-15; > 100 µM (inactive) in the assay with HOP-92; > 100 µM (inactive) with HOP-62; > 100 µM (inactive) in the assay on SW-620; > 100 µM (inactive) with NCI-H23; > 100 µM (inactive) in the assay with OVCAR-4. The GI50 with OVCAR-3, with Malme-3M, with CCRF-CEM, in the assay with TK-10, in the assay with SK-MEL-5 and with U-251 was > 100 µM (inactive) in each case. Besides, the GI50 is > 100 µM (inactive) with HCT-116; > 100 µM (inactive) in the assay with KM-20L2; 31.3 µM (inactive) in the assay on NCI-H522; > 100 µM (inactive) in the assay with SF-268; > 100 µM (inactive) in the assay with SK-OV-3.

As to `O=C1OC(c2ccccc2)=N/C1=C/NC(CO)C(=O)O` (configuration not stated), the GI50 in the assay on HCT-15 was more than 100 µM; with HOP-92, > 100 µM (inactive); with HOP-62 it was > 100 µM (inactive); in the assay on SW-620 it was > 100 µM (inactive); in the assay with NCI-H23, > 100 µM (inactive); with OVCAR-4 it was > 100 µM (inactive). For the same compound, the GI50 in the assay with OVCAR-3, in the assay on Malme-3M, in the assay on CCRF-CEM, with TK-10, in the assay with SK-MEL-5 and with U-251 was > 100 µM (inactive) throughout. Besides, the GI50 in the assay with HCT-116, in the assay on KM-20L2, in the assay on NCI-H522, in the assay on SF-268 and with SK-OV-3 was > 100 µM (inactive) each time.

Turning to `O=C1OC(=O)C2C1C1(c3ccccc3)OC2(c2ccccc2)c2c(Br)c(Br)c(Br)c(Br)c21` (configuration not stated), the GI50 was more than 100 µM in the assay on HCT-15; > 100 µM (inactive) with HOP-92; > 100 µM (inactive) with HOP-62; > 100 µM (inactive) with SW-620; > 100 µM (inactive) in the assay with NCI-H23; > 100 µM (inactive) with OVCAR-4. The GI50 in the assay with OVCAR-3, in the assay on Malme-3M, in the assay with CCRF-CEM, in the assay with TK-10, in the assay with SK-MEL-5 and in the assay with U-251 was > 100 µM (inactive) each time. The GI50 was > 100 µM (inactive) with HCT-116; > 100 µM (inactive) in the assay with KM-20L2; > 100 µM (inactive) in the assay on NCI-H522; > 100 µM (inactive) in the assay on SF-268; 28.7 µM (inactive) in the assay with SK-OV-3.

Turning to `Oc1ccc([Te]CCNCC[Te]c2ccc(O)cc2)cc1`, the GI50 in the assay on HOP-62 is 18.2 µM (inactive); in the assay on SW-620, 23.1 µM (inactive); in the assay with NCI-H23 it was 4.78 µM (inactive); with Malme-3M it was 22.6 µM (inactive); with CCRF-CEM it was 2.97 µM (inactive); with TK-10 it was 30.3 µM (inactive). For the same compound, the GI50 in the assay with SK-MEL-5 is 11.9 µM (inactive); with U-251 it was 6.22 µM (inactive); in the assay on HCT-116, 5.96 µM (inactive); with KM-20L2, 14.4 µM (inactive); in the assay on SF-268 it was 11.1 µM (inactive); in the assay with SR, 5.19 µM (inactive). Further, the GI50 in the assay on SK-OV-3 was 25 µM (inactive).

Take `O=[N+]([O-])c1ccc(C[P+](c2ccccc2)(c2ccccc2)c2ccccc2)cc1`: the GI50 in the assay on HCT-15 was 81.5 µM; in the assay with HOP-62 it was > 100 µM (inactive); in the assay on SW-620, 88.3 µM (inactive); in the assay on NCI-H23, 83.8 µM (inactive); with OVCAR-3 it was 42.8 µM (inactive); with Malme-3M it was 37.8 µM (inactive). In addition, the GI50 in the assay with CCRF-CEM was 80 µM (inactive); in the assay with TK-10 it was 56 µM (inactive); in the assay with SK-MEL-5, 57 µM (inactive); in the assay with U-251 it was 31.7 µM (inactive); in the assay with HCT-116, 36.5 µM (inactive); with KM-20L2 it was 99.3 µM (inactive). Moreover, the GI50 is 32.7 µM (inactive) with NCI-H522, 38.4 µM (inactive) in the assay with SR and > 100 µM (inactive) in the assay on SK-OV-3.

For the compound `CC(=O)O/N=C(/C)c1ccccc1O`, the GI50 with HOP-62, in the assay with SW-620, in the assay with NCI-H23, in the assay on OVCAR-4, with OVCAR-3 and with Malme-3M was > 100 µM (inactive) in each case. The GI50 in the assay with CCRF-CEM, in the assay with TK-10, in the assay on U-251, with HCT-116, with KM-20L2 and in the assay with NCI-H522 was > 100 µM (inactive) throughout. Moreover, the GI50 in the assay with SF-268 and in the assay with SK-OV-3 was > 100 µM (inactive) in each case.

For `COc1ccc2[nH]c3c(c2c1)CCN(C)CC3`, the GI50 in the assay on HCT-15 is more than 100 µM; in the assay with HOP-92, > 100 µM (inactive); with HOP-62, > 100 µM (inactive); with SW-620 it was > 100 µM (inactive); in the assay on NCI-H23, > 100 µM (inactive); with OVCAR-4 it was 45.3 µM (inactive). Moreover, the GI50 in the assay with OVCAR-3, with Malme-3M, with CCRF-CEM, in the assay on TK-10, with SK-MEL-5 and in the assay with U-251 was > 100 µM (inactive) throughout. Further, the GI50 in the assay with HCT-116, in the assay with KM-20L2, in the assay with SF-268 and in the assay with SK-OV-3 was > 100 µM (inactive) throughout.

For the compound `Cc1ccc(-n2c3nc(=O)n(C)c(=O)c-3nc3ccccc32)cc1`, the GI50 in the assay with HCT-15 is 8.18 µM; with HOP-62, 43.9 µM (inactive); in the assay with SW-620, 5.75 µM (inactive); with NCI-H23 it was 1.56 µM (inactive); with OVCAR-4, 14.5 µM (inactive); in the assay on OVCAR-3 it was 3.24 µM (inactive). Besides, the GI50 with Malme-3M is 13.8 µM (inactive); with CCRF-CEM, 17.3 µM (inactive); with TK-10, 27.2 µM (inactive); with SK-MEL-5, 13.4 µM (inactive); in the assay with U-251, 15.1 µM (inactive); in the assay with HCT-116, 19.1 µM (inactive). The GI50 in the assay with KM-20L2 is 5.27 µM (inactive); with NCI-H522 it was 12.6 µM (inactive); with SF-268, 35.7 µM (inactive); with SK-OV-3, 95.7 µM (inactive).

On to `Nc1nc(OCc2ccccc2)c2nc[nH]c2n1` [6-O-BENZYLGUANINE], for which the GI50 in the assay on HCT-15 is 57.1 µM; in the assay with HOP-92 it was 64.4 µM (inactive); in the assay with HOP-62, 51.6 µM (inactive); in the assay on SW-620, 169 µM (inactive); in the assay on NCI-H23 it was 97.1 µM (inactive); in the assay on OVCAR-4, 69.8 µM (inactive). Moreover, the GI50 in the assay with OVCAR-3 was 90.2 µM (inactive); in the assay with Malme-3M it was 87.9 µM (inactive); in the assay with CCRF-CEM, 66.8 µM (inactive); in the assay with TK-10, 47.1 µM (inactive); in the assay on SK-MEL-5, 81.1 µM (inactive); with U-251, 87.7 µM (inactive). Moreover, the GI50 with HCT-116 is 59.6 µM (inactive); in the assay on KM-20L2, 85.7 µM (inactive); in the assay with NCI-H522, 49.4 µM (inactive); in the assay with SF-268, 70 µM (inactive); in the assay on SK-OV-3 it was 75.7 µM (inactive).

For the origin of these results see ChEMBL document CHEMBL1201862, “PubChem BioAssay data set” (2004).
